# Results reported in patent publication US10071962B2, “Androgen receptor modulators and methods for their use” (British Columbia Cancer Agency Branch, priority 2014, dated 2018).
# Target: T1, androgen receptor (AR) (Homo sapiens, UniProt P10275, T878A)
# T1 construct: they express endogenous androgen receptor (AR) and secrete prostate-specific antigen (PSA); endogenous in cells; host or cells: LNCaP
# T1 sequence (P10275 1-920 T878A): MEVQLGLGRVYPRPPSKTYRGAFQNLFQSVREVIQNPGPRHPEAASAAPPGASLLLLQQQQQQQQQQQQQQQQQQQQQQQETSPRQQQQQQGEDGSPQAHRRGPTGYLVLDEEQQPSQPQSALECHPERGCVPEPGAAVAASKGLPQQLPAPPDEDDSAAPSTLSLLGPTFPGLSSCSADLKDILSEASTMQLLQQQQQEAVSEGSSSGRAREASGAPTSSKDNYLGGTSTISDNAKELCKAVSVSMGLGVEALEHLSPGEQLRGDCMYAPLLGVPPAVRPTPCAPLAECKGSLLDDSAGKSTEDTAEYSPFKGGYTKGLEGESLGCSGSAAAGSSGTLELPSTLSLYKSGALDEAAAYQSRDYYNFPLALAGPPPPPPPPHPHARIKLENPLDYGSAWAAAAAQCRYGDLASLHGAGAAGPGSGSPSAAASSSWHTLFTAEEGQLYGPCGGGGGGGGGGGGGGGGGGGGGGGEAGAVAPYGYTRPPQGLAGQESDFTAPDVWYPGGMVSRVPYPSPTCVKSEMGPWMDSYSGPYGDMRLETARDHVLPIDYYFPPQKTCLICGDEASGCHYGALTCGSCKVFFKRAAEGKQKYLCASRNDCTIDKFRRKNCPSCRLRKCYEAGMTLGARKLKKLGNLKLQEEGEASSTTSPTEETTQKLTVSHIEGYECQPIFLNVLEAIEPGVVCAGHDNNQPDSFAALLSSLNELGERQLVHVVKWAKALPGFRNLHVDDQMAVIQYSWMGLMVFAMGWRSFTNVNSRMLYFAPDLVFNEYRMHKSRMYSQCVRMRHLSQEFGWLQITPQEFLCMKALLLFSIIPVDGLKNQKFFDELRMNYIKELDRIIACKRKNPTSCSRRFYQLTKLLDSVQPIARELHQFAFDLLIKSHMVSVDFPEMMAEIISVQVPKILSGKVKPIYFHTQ
# Assay: PSA (6.1 kb)-luciferase reporter assay in LNCaP cells, R1881-induced AR transcriptional activity
# Format: cell-based
# Conditions: LNCaP cells transfected with PSA (6.1 kb)-luciferase; 1 h pre-treatment, R1881 1 nM, 48 h; various concentrations
# Method: R1881 (a synthetic androgen) is employed since it is stable and avoids problems associated with the labile physiological ligand dihydrotestosterone (DHT).
# LNCaP (2.4×10^4 cell/well) cells were seeded on 24-well plates overnight before transfection with PSA (6.1 kb)-luciferase plasmid (0.25 ug/well) in serum-free, red phenol-free media. The next day, cells were pre-treated with compounds of the invention for 1 hour before the addition of synthetic androgen, R1881 (1 nM) to transactivate androgen receptor (AR). After 48 h of incubation with R1881, the cells were harvested, and relative luciferase activity was determined as a read-out for androgen receptor (AR) transcriptional activity relative to a control. Test compounds were added to the cells at various concentrations and activity for each treatment was normalized to the predicted maximal activity induction (in the absence of test compounds, vehicle only). Transfection experiments were performed using triplicate wells.
row,SMILES,luciferase activity relative to the control (read-out for AR transcriptional activity)
1,CCC(=O)N[C@@H](CCC(Cl)(Cl)Cl)C(=O)N1C(=O)C=C(OC)[C@@H]1CCC(Cl)(Cl)Cl [Compound 1-1a],decrease in luciferase activity relative to the control
2,CCC(=O)N[C@@H](CCC(Cl)(Cl)Cl)C(=O)N1C(=O)C=C(OC)[C@H]1CCC(Cl)(Cl)Cl [Compound 1-1b],decrease in luciferase activity relative to the control
3,CCC(=O)N[C@H](CCC(Cl)(Cl)Cl)C(=O)N1C(=O)C=C(OC)[C@@H]1CCC(Cl)(Cl)Cl [Compound 1-1c],decrease in luciferase activity relative to the control
4,CCC(=O)N[C@H](CCC(Cl)(Cl)Cl)C(=O)N1C(=O)C=C(OC)[C@H]1CCC(Cl)(Cl)Cl [Compound 1-1d],decrease in luciferase activity relative to the control
5,C#CCCC(=O)N[C@H](CCC(Cl)(Cl)Cl)C(=O)N1C(=O)C=C(OC)[C@@H]1CCC(Cl)(Cl)Cl [Compound 1-2c],decrease in luciferase activity relative to the control
6,C#CCCC(=O)N[C@H](CCC(Cl)(Cl)Cl)C(=O)N1C(=O)C=C(OC)[C@H]1CCC(Cl)(Cl)Cl [Compound 1-2d],decrease in luciferase activity relative to the control
7,COC1=CC(=O)N(C(=O)[C@H](N)CCC(Cl)(Cl)Cl)[C@H]1CCC(Cl)(Cl)Cl [Compound 1-4c],decrease in luciferase activity relative to the control
8,COC1=CC(=O)N(C(=O)[C@H](N)CCC(Cl)(Cl)Cl)[C@@H]1CCC(Cl)(Cl)Cl [Compound 1-4d],decrease in luciferase activity relative to the control
9,CCS(=O)(=O)N[C@H](CCC(Cl)(Cl)Cl)C(=O)N1C(=O)C=C(OC)[C@H]1CCC(Cl)(Cl)Cl [Compound 1-6d],decrease in luciferase activity relative to the control
10,CCC(=O)N[C@H](CCC(Cl)(Cl)Cl)C(=O)N1C(=O)C=C(OC)[C@@H]1CC(C)C [Compound 1-7c],decrease in luciferase activity relative to the control
11,CCC(=O)N[C@H](CCC(Cl)(Cl)Cl)C(=O)N1C(=O)C=C(OC)[C@H]1CC(C)C [Compound 1-7d],decrease in luciferase activity relative to the control
12,CCC(=O)N[C@H](CC(C)C)C(=O)N1C(=O)C=C(OC)[C@@H]1CCC(Cl)(Cl)Cl [Compound 1-8c],decrease in luciferase activity relative to the control
13,CCC(=O)N[C@H](CC(C)C)C(=O)N1C(=O)C=C(OC)[C@H]1CCC(Cl)(Cl)Cl [Compound 1-8d],slight increase in luciferase activity relative to the control
14,C#CCCC(=O)N[C@H](CCC(Cl)(Cl)Cl)C(=O)N1C(=O)C=C(OC)[C@@H]1CC(C)C [Compound 1-9c],decrease in luciferase activity relative to the control
